We go through two compounds from patent publication US7648989B2, “Indolylmaleimide derivatives as PKC inhibitors” (Novartis AG, priority 2004, dated 2010).

The target in one test is T1, Human recombinant PKCε (Homo sapiens, UniProt Q02156).
T1 construct: purchased Oxford Biomedical Research
T1 sequence (Q02156 1-737): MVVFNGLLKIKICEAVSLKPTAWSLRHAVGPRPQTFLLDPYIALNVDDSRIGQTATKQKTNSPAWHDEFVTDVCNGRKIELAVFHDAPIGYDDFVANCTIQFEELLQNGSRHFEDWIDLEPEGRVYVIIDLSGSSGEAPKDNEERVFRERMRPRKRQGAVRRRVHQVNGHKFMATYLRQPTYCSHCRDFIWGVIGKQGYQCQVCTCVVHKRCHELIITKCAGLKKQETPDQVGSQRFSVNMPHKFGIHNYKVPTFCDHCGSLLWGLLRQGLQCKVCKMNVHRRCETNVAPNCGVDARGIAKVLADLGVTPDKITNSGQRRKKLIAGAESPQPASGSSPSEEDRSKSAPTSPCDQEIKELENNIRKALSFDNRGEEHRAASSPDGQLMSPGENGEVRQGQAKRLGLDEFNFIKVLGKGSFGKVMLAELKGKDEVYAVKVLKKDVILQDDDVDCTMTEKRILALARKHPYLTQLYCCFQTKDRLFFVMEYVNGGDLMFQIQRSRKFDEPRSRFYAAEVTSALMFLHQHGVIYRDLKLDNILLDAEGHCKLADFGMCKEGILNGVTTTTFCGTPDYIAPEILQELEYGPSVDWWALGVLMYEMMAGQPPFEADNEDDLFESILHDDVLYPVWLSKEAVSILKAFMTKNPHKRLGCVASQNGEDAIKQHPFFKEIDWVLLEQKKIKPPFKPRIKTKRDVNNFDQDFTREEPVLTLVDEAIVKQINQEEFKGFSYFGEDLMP
Put plainly: Protein Kinase Cε assay. The class given is biochemical. The note with it: selectivity ratio relative to PKCα. As to the method:
(§1) The compounds of the invention are tested for their activity on different PKC isoforms according to the following method. Assay is performed in a white with clear bottom 384-well microtiterplate with non-binding surface. The reaction mixture (25 μl) contains 1.5 μM of a tridecapeptide acceptor substrate that mimics the pseudo substrate sequence of PKC α with the Ala→Ser replacement, 10 μM ^33P-ATP, 10 mM Mg(NO3)2, 0.2 mM CaCl2, PKC at a protein concentration varying from 25 to 400 ng/ml (depending on the isotype used), lipid vesicles (containing 30 mol % phosphatidylserine, 5 mol % DAG and 65 mol % phosphatidylcholine) at a final lipid concentration of 0.5 mM, in 20 mM Tris-HCl buffer pH 7.4+0.1% BSA. Incubation is performed for 60 min at room temperature.
Human recombinant PKCε is obtained from Oxford Biomedical Research and is used under the assay conditions as described under Section A.1 above.

In the next test the target is T2, Human recombinant PKCδ (Homo sapiens, UniProt Q05655).
T2 construct: purchased Oxford Biomedical Research
Put plainly: Protein Kinase Cδ assay. The class given is biochemical. The note with it: selectivity ratio relative to PKCα. As for the experimental part:
as §1
Human recombinant PKCδ is obtained from Oxford Biomedical Research and is used under the assay conditions as described under Section A.1 above.

In the next test the target is Human recombinant PKCθ (Homo sapiens, UniProt Q04759). Put plainly: Protein Kinase Cθ assay. The class given is biochemical. The following applies: selectivity ratio relative to PKCα. As to the method:
as §1
Human recombinant PKCθ is used under the assay conditions as described above.

The target in the next test is T3, Human recombinant PKCβ1 (Homo sapiens, UniProt P05771).
T3 construct: purchased Oxford Biomedical Research
Put plainly: Protein Kinase Cβ1 assay. The class given is biochemical. The following applies: selectivity ratio relative to PKCα. As to the method:
as §1
Human recombinant PKCβ1 is obtained from Oxford Biomedical Research and is used under the assay conditions as described under Section A.1 above.

Another test addresses T4, Human recombinant PKCη (Homo sapiens, UniProt P24723).
T4 construct: purchased PanVera
Put plainly: Protein Kinase Cη assay. The following applies: selectivity ratio relative to PKCα. The class given is biochemical. As for the experimental part:
as §1
Human recombinant PKCη is obtained from PanVera and is used under the assay conditions as described under Section A.1 above.

Test [1] concerns spleen cells from CBA and BALB/c mice (MLR); bone marrow cells from CBA mice (BM). The experiment in a line: Allogeneic Mixed Lymphocyte Reaction (MLR) assay compared with Bone Marrow Proliferative (BM) assay. The class given is cell-based. The note with it: mouse MLR and mouse bone marrow proliferation, 3H-thymidine incorporation. As to the method: Bone marrow cells from CBA mice (2.5×10^4 cells per well in flat bottom tissue culture microtiter plates) are incubated in 100 μl RPMI medium containing 10% FCS, 100 U/ml penicillin, 100 μg/ml streptomycin (Gibco BRL, Basel, Switzerland), 50 μM 2-mercaptoethanol (Fluka, Buchs, Switzerland), WEHI-3 conditioned medium (7.5% v/v) and L929 conditioned medium (3% v/v) as a source of growth factors and serially diluted compounds. Seven three-fold dilution steps in duplicates per test compound are performed. After four days of incubation 1 μCi ^3H-thymidine is added. Cells are harvested after an additional five-hour incubation period, and incorporated ^3H-thymidine is determined according to standard procedures. Conditioned media are prepared as follows. WEHI-3 cells (ATCC TIB68) and L929 cells (ATCC CCL 1) are grown in RPMI medium until confluence for 4 days and one week, respectively. […]
Briefly, spleen cells from CBA and BALB/c mice (1.6×10^5 cells from each strain per well in flat bottom tissue culture microtiter plates, 3.2×10^5 in total) are incubated in RPMI medium containing 10% FCS, 100 U/ml penicillin, 100 μg/ml streptomycin (Gibco BRL, Basel, Switzerland), 50 μM 2-mercaptoethanol (Fluka, Buchs, Switzerland) and serially diluted compounds. […] Cells are harvested after an additional five-hour incubation period, and incorporated ^3H-thymidine is determined according to standard procedures. […]
(In general: Dividing cells build labelled thymidine or BrdU into new DNA.)

T3 sequence (P05771 whole entry): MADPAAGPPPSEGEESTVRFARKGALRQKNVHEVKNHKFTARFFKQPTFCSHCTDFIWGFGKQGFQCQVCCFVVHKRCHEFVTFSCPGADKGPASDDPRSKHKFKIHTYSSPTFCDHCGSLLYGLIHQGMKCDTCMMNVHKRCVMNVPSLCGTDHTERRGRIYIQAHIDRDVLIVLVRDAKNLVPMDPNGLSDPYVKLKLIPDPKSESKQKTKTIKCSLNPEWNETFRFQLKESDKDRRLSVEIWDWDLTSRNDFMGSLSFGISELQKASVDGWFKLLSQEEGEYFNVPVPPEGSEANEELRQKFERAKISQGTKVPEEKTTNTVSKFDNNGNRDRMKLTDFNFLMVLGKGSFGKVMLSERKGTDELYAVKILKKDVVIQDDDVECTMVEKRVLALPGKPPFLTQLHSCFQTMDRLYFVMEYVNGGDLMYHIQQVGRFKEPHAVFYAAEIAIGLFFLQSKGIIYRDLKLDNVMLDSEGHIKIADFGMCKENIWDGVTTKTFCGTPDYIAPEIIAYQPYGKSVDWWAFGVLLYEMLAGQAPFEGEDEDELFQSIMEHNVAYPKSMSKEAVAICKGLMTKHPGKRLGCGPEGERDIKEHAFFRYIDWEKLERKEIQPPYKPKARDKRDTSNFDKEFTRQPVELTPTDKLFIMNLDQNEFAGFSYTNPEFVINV
T4 sequence (P24723 whole entry): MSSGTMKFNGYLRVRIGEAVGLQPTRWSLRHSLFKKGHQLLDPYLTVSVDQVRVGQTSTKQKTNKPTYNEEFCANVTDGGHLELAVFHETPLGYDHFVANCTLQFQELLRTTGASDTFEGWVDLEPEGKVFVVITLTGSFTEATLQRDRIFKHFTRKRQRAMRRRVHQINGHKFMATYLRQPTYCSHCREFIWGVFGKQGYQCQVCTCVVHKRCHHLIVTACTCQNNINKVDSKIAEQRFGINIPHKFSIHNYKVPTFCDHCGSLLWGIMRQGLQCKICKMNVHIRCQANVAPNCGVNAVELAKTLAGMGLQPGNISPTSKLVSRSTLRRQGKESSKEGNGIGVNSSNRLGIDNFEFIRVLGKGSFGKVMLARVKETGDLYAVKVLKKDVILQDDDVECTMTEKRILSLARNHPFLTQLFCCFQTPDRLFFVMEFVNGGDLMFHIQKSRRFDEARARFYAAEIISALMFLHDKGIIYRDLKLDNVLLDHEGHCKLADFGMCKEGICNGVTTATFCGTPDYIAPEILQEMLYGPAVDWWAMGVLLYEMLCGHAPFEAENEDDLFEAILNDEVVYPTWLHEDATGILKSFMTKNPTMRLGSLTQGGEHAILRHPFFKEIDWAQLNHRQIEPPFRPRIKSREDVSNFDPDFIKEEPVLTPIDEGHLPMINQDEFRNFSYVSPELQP
T2 sequence (Q05655 whole entry): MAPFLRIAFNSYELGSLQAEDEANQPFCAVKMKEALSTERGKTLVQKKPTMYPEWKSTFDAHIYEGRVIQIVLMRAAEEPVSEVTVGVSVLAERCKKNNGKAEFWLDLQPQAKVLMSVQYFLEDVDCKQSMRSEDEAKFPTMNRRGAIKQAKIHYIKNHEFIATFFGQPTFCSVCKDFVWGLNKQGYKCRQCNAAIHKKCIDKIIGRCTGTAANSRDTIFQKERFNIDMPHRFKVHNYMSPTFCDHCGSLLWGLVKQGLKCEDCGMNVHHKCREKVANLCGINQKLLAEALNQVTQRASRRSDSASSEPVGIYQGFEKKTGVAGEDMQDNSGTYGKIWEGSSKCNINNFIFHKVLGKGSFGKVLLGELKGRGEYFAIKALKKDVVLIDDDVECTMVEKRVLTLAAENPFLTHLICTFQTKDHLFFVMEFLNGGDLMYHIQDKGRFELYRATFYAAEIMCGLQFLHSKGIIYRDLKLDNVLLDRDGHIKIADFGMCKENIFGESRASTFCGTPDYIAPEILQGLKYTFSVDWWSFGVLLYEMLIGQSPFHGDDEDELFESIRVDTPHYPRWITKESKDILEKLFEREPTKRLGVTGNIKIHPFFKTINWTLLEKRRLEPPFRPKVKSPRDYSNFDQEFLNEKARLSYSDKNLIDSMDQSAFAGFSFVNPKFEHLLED
Chain of Human recombinant PKCθ (Q04759 whole entry): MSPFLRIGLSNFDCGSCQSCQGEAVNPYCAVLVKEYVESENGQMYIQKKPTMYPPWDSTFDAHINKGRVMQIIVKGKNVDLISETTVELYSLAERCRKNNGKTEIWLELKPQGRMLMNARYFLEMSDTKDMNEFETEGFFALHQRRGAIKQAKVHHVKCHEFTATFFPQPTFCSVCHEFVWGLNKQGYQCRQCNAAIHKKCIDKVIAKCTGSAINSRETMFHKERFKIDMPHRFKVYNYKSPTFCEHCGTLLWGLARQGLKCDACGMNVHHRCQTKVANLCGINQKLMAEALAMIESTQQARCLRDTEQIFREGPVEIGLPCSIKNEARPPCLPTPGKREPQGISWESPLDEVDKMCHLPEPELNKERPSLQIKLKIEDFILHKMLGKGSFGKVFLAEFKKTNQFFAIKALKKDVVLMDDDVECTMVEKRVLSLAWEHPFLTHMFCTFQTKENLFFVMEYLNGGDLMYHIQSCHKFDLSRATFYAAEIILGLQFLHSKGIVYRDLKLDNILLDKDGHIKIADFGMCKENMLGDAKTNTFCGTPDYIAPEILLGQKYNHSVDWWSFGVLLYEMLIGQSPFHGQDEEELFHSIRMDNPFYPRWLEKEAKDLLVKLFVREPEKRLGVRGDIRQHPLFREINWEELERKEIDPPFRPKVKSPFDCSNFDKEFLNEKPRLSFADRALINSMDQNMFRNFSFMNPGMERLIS

With `CN(C)Cc1ccc2ccc(Cl)c(C3=C(c4cn(C)c5ccccc45)C(=O)NC3=O)c2c1` [Example 1, 3-(2-Chloro-7-dimethylaminomethyl-naphthalen-1-yl)-4-(1-methyl-1H-indol-3-yl)-pyrrole-2,5-dione], the “ε/α: ratio of the IC50 value for PKC ε to the IC50 value for PKCα” value at Human recombinant PKCε stood at 122.6. Further, the “δ/α: ratio of the IC50 value for PKC δ to the IC50 value for PKCα” value at Human recombinant PKCδ is reported as 66.4. Moreover, the “θ/α: ratio of the IC50 value for PKC θ to the IC50 value for PKCα” value at Human recombinant PKCθ worked out at 90.8. At Human recombinant PKCβ1, the “β/α: ratio of the IC50 value for PKC β to the IC50 value for PKCα” value was determined as 1.2. Also, the “η/α: ratio of the IC50 value for PKC η to the IC50 value for PKCα” value at Human recombinant PKCη was determined as 140.2. Moreover, in test [1], the “MLR/BM: ratio of the IC50 value as determined by the MLR assay to the IC50 value as determined by the BM assay” value is reported as 21.6.

As for `Cn1c2ccccc2c2c3c(c4c5ccccc5n(CCC#N)c4c21)CNC3=O` [Example 47, Gö 6976], on Human recombinant PKCε, the “ε/α: ratio of the IC50 value for PKC ε to the IC50 value for PKCα” value is 45.8. Further, the “δ/α: ratio of the IC50 value for PKC δ to the IC50 value for PKCα” value at Human recombinant PKCδ was 120.5. Further, the “θ/α: ratio of the IC50 value for PKC θ to the IC50 value for PKCα” value on Human recombinant PKCθ was determined as 222.3. Also, the “β/α: ratio of the IC50 value for PKC β to the IC50 value for PKCα” value on Human recombinant PKCβ1 amounted to 5.3. For the same compound, on Human recombinant PKCη, the “η/α: ratio of the IC50 value for PKC η to the IC50 value for PKCα” value is on record as 118.7. The “MLR/BM: ratio of the IC50 value as determined by the MLR assay to the IC50 value as determined by the BM assay” value in test [1] was found to be 2.1.
